Data as given in US12600757B2, “Peptides inhibiting gamma-c-cytokine activity and methods of use” (Bioniz, LLC, priority 2017, dated 2026).
Bridge positions count the residues as written; N and C are the ends. Square brackets hold non-standard residues; d marks the D form. Ends that are not written are not given here. Peptide text beside a SMILES is read from it. R5 = C=CCCC[C@@](C)(N)C(=O)O; S5 = C=CCCC[C@](C)(N)C(=O)O

Columns and labels:
[1] = Time-course protease stability in simulated intestinal fluid (RP-HPLC); details: simulated intestinal fluid (USP), 37° C., over 60 minutes
Source text: To evaluate the gastric stability of the custom peptide derivatives containing one or more intra-peptide hydrocarbon linker elements of the present embodiments a time-course protease stability measurement of unmodified SEQ ID NO: 3 in comparison with a representative custom peptide derivative of SEQ ID NO: 3 containing one hydrocarbon linker element (SEQ ID NO: 39), and another representative custom peptide derivative of SEQ ID NO: 3 containing two hydrocarbon linker elements and certain amino acid positions in the (D) stereochemical configuration (SEQ ID NO: 57) was carried out in simulated intestinal fluid over 60 minutes. […] Simulated intestinal fluid was made according to USP specifications (Test Solutions, United States Pharmacopeia 36). 50 μL of 10 mg/mL peptide was mixed with 450 μL pre-warmed (37° C.) simulated intestinal fluid, and aliquots of the reaction mixture were removed at prescribed time intervals over a time-period of 60 minutes and stopped with 0.1 M HCl. Peptide stability was measured by reversed phase HPLC on a Phenomenex Aeris Peptide column (4.6×250 mm) with settings: 3.6 μm particle size, non-porous; 5.0 μL injection, 0.5 mL/min; mobile phase A: 25% Acetonitrile with 0.1% TFA; mobile phase B: 100% Acetonitrile with 0.1% TFA. The multi-step buffer gradient goes from 100% A to 100% B over 26 minutes. […]

[2] = tested on: T-cells in HAM/TSP culture; test: Ex vivo spontaneous T-cell proliferation assay using HAM/TSP patient PBMC; assay type: cell-based, human; details: HAM/TSP peripheral blood ex vivo culture
Procedure: Proliferation assays were performed on HAM/TSP patient blood samples with and without the addition of BNZ-γ. These assays evaluated the ability of BNZ-γ to block the function of cytokines, such as IL-2 and IL-15, present in the ex vivo HAM/TSP patient blood culture and prevent spontaneous T-cell proliferation in these samples.
In an ex vivo spontaneous T-cell proliferation assay, PBMC from HAM/TSP patient was cultured at 1×10(6) cells per well of a 96 well plate in RPMI-10% FCS. Increasing concentrations of BNZ-γ peptide were added to each well. As a control, an irrelevant peptide was used in similar fashion. The cells were incubated in a 37° C. CO2 incubator for 3, 4, and 6 days. The amount of 1 uCi of ^3H-thymidine was added to the cells. After an additional 6 hour incubation, cells were harvested their proliferation rate was measured. As indicated in FIG. 5A-FIG. 5D, BNZ-γ peptide inhibits the spontaneous proliferation of T-cells in HAM/TSP culture at a concentration of about 1 ug/ml.
Other immunological markers were additionally measured in this assay. The percentage of the viral specific CD8 cells was measured during the ex vivo culture using viral protein tetramers. The population of CD4+CD25+ cells, a marker of T-cell activation, as well as Ki67 staining, a marker of T-cell proliferation, was monitored in a flow cytometry assay.

[3] = tested on: IL-15 mediated phosphorylation of STAT-5; test: IL-15 mediated phosphorylation of STAT5 in CTLL-2 cells (immunoblot); assay type: cell-based, murine; details: anti-phospho-STAT5 immunoblot
Source text: (§1) Similar to the IL-15 induced tyrosine phosphorylation of STAT5 via Jak3, it is well known in the art that Jak-STAT signaling mediated via IL-21 receptor binding preferentially induces Jak-mediated tyrosine phosphorylation of STAT3 (Habib et al. 2003 J Allergy Clin Immunol. 112:1033-45). In accordance with these published data, the ability of SEQ ID NO: 3 to inhibit the tyrosine phosphorylation of the STAT5 molecule by IL-2 or IL-15 in CTLL-2 cells, and the ability of SEQ ID NO: 3 to inhibit the tyrosine phosphorylation of the STAT3 molecule by IL-21 in NK92 cells was examined (results shown in FIG. 4B).
(§2) CTLL-2 cells were stimulated by IL-2 or IL-15 in the presence or absence of SEQ ID NO: 3. CTLL-2 cells were also stimulated by IL-2 or IL-15 in the presence of anti-IL-2 antibody (R & D Systems, Catalog #MAB202, Minneapolis, MN) or anti-IL-15 antibody (R & D Systems, Catalog #MAB247, Minneapolis, MN) as positive controls. NK92 cells were stimulated by IL-21 in the presence or absence of SEQ ID NO: 3. NK92 cells were also stimulated by IL-21 in the presence of anti-IL-21 antibody (Mabtech, Catalog #3540-1-250, Cincinnati, OH) as a positive control. Cytoplasmic proteins were extracted from the cells according to a conventional method as described in Tagaya et al. 1996 EMBO J. 15:4928-39. […]

[4] = tested on: IL-2 mediated phosphorylation of STAT-5; test: IL-2 mediated phosphorylation of STAT5 in CTLL-2 cells (immunoblot); assay type: cell-based, murine; details: anti-phospho-STAT5 immunoblot
Source text: as §1, §2

[5] = tested on: IL-21 mediated phosphorylation of STAT-3; test: IL-21 mediated phosphorylation of STAT3 in NK92 cells (immunoblot); assay type: cell-based, human; details: anti-phospho-STAT3 immunoblot
Source text: as §1, §2

[6] = tested on: IL-21; test: NK92 cell proliferation assay (WST-1), IL-21 stimulated; assay type: cell-based, human; details: NK92 cells, 2 days
Source text: (§3) For each of the six γc-cytokines, indicator cell lines: NK92, a human NK cell line NK92 available by American Type Culture Collection (ATCC) (catalog #CRL-2407), CTLL-2, a murine CD8 T cells line available from ATCC, and PT-18, a murine mast cell line and its subclone PT-18β, is transfected with human IL-2Rβ gene to make the cells responsive to IL-2 and IL-15 (Tagaya et al., 1996, EMBO J. 15:4928-39), and is used to quantitatively determine the γc-cytokine's growth-promoting activity (See Current protocols in Immunology from Wiley and Sons for a methodological reference).
(§4) Once the appropriate doses of the cytokine that yield the 50-70% and 95% maximum response from the indicator cell line is determined, various concentrations (ranging from 1 μM to 10 μM) of the purified or synthesized custom derivative peptide is added to each well containing the cytokine and indicator cells. The reduction in light absorbance at 450 nm is used as an indicator of inhibition of cytokine-stimulated cellular proliferation.
(§5) The human NK cell line NK92 was used for a dose response of SEQ ID NO: 3 against IL-2, IL-15, and IL-21. Cells were cultured with 0.5 nM of recombinant IL-2 in RPMI 10% fetal Calf Serum. […] The growth-responses of the cells were determined 2 days after the introduction of SEQ ID NO: 3 and the cytokine using the WST-1 assay. […]

[7] = tested on: IL-4; test: NK92 cell proliferation assay (WST-1), IL-4 stimulated; assay type: cell-based, human; details: NK92 cells, peptide 2.5 μM (70% purity), 2 days
Source text: as §3, §4
as §5, with “to determine the γc-cytokine inhibitory specificity” for “for a dose response”, “3. In this assay the cells” for “3 against IL-2, IL-15, and IL-21. Cells”

[8] = tested on: IL-9; test: NK92 cell proliferation assay (WST-1), IL-9 stimulated; assay type: cell-based, human; details: NK92 cells, peptide 2.5 μM (70% purity), 2 days
Source text: as §3, §4
as §5, with “to determine the γc-cytokine inhibitory specificity” for “for a dose response”, “3. In this assay the cells” for “3 against IL-2, IL-15, and IL-21. Cells”

[9] = tested on: IL-2; test: NK92 cell proliferation assay (WST-1), IL-2 stimulated; assay type: cell-based, human; details: NK92 cells, 2 days
Source text: as §3, §4, §5

[10] = tested on: IL-15; test: NK92 cell proliferation assay (WST-1), IL-15 stimulated; assay type: cell-based, human; details: NK92 cells, 2 days
Source text: as §3, §4, §5

[11] = tested on: IL-15 induction of IFNγ gene transcription; test: IL-15 induced IFNγ gene transcription in NK92 cells (qPCR); assay type: cell-based; details: peptide 10 minutes pre-treatment, human IL-15 1 ng/mL for 2 hours
Source text: (§6) The cytokine interferon gamma (IFNγ) represents a useful marker for inflammation in multiple human immune-inflammatory disease states. Transcription of the IFNγ gene is inducible by IL-15, IL-21, the non-γc cytokine IL-12, and other select cytokines. The ability to block cytokine-induced IFNγ transcription therefore represents another useful approach to determine the biological activity of custom peptide derivatives.
(§7) NK92 cells were brought to a quiescent state by PBS washing and culturing in the absence of cytokine for 48 hours. Cells were treated with SEQ ID NO: […] for 10 minutes, and then stimulated with human IL-15, IL-21, or IL-12 at 1 ng/mL for 2 hours. A cytokine only treatment group, and another treatment group where the NK92 cells were left untreated by peptide, and not stimulated by cytokine were also included as control conditions. Following incubation with peptide and cytokine, cells were harvested, RNA was isolated for cDNA generation and used as template for qPCR analysis to quantify IFNγ transcripts.

[12] = tested on: IL-21 induction of IFNγ gene transcription; test: IL-21 induced IFNγ gene transcription in NK92 cells (qPCR); assay type: cell-based; details: peptide 10 minutes pre-treatment, human IL-21 1 ng/mL for 2 hours
Source text: as §6, §7

[13] = tested on: IL-12 induction of IFNγ gene transcription; test: IL-12 induced IFNγ gene transcription in NK92 cells (qPCR); assay type: cell-based; details: peptide 10 minutes pre-treatment, human IL-12 1 ng/mL for 2 hours
Source text: as §6, §7

[14] = peptide 0-0.1 μM (>99% purity), cytokine at 70% proliferation level

CC[C@H](C)[C@H](NC(=O)[C@]1(C)CCCC=CCCC[C@](C)(NC(=O)[C@@H](Cc2c[nH]cn2)NC(=O)[C@@]2(C)CCCC=CCCC[C@](C)(NC(=O)[C@@H](Cc3ccccc3)NC(=O)[C@@H](CCC(=O)O)NC(=O)[C@@H](CCCCN)NC(=O)[C@H]3CCCN3C(=O)[C@@H](CCCNC(=N)N)NC(=O)[C@@H](CCCNC(=N)N)NC(=O)[C@@H](CCCNC(=N)N)NC(=O)[C@H](N)CCCNC(=N)N)C(=O)N[C@@H](CCC(=O)O)C(=O)N[C@@H](CCCNC(=N)N)C(=O)N[C@@H](Cc3ccccc3)C(=O)N2)C(=O)N[C@@H](C(C)C)C(=O)N[C@@H](CCC(N)=O)C(=O)N[C@@H](CC(C)C)C(=O)N1)C(=O)N[C@H](Cc1c[nH]cn1)C(=O)N[C@H](CCC(N)=O)C(=O)N[C@H](CO)C(=O)N[C@H](CC(C)C)C(=O)N[C@H](CO)C(=O)O [SEQ ID NO: 57, {dR}-{dR}-{dR}-{dR}-{dP}-{dK}-{dE}-{dF}-{S5Ala1}-E-R-F-{R5Ala1}-{dH}-{S5Ala2}-V-Q-L-{S5Ala2}-I-{dH}-{dQ}-{dS}-{dL}-{dS}] (H-[dR][dR][dR][dR][dP][dK][dE][dF][S5]ERF[R5][dH][S5]VQL[S5]I[dH][dQ][dS][dL][dS]-OH; staple 9-13, 15-19; N-terminus and C-terminus assumed)
percentage of undigested peptide present in simulated intestinal fluid, compared to the unmodified peptide [1]: greatly enhanced

IKEFLQRFIHIVQSIINTS [BNZ-γ, I-K-E-F-L-Q-R-F-I-H-I-V-Q-S-I-I-N-T-S]
percent of live cells by Guava staining [2]: not impacted

PKEFLERFVHLVQMFIHQSLS (PKEFLERFVHLVQMFIHQSLS) [SEQ ID NO: 3, 21-mer composite peptide of γc-cytokine D-helix regions]
IL-15 mediated phosphorylation of STAT-5 [3]: inhibited | IL-2 mediated phosphorylation of STAT-5 [4]: but not IL-2 mediated phosphorylation of STAT-5 | IL-21 mediated phosphorylation of STAT-3 [5]: inhibited | activity of IL-21 (dose response) [6, 14]: potently inhibited | activity of IL-21 (inhibitory specificity) ([6]; peptide 2.5 μM (70% purity)): significantly reduced | cellular proliferation stimulated by IL-4 (inhibitory specificity) [7]: not affected | cellular proliferation stimulated by IL-9 (inhibitory specificity) [8]: not affected | cellular proliferation stimulated by IL-2 (dose response) ([9]; peptide 0-10 μM (>99% purity), cytokine at 70% proliferation level): not affected | cellular proliferation stimulated by IL-2 (inhibitory specificity) ([9]; peptide 2.5 μM (70% purity)): not affected | activity of IL-15 (dose response) [10, 14]: potently inhibited | activity of IL-15 (inhibitory specificity) ([10]; peptide 2.5 μM (70% purity)): significantly reduced

{S5Ala1}-P-K-E-{S5Ala1}-L-E-R-F-V-H-L-V-Q-K-{S5Ala2}-I-H-Q-{S5Ala2}-L-S [SEQ ID NO: 83]
IL-15 induction of IFNγ gene transcription [11]: inhibition | IL-21 induction of IFNγ gene transcription [12]: inhibition | non-γc cytokine IL-12 induction of IFNγ gene transcription [13]: did not block
